Laboratory results from US9067930B2, “2-oxo-piperidinyl derivatives” (UCB Pharma, S.A., priority 2011, dated 2015).

Key:
[1] = tested on: dural protein extravasation induced by electrical stimulation of the trigeminal ganglion; assay: Plasma protein extravasation (PPE) / dural extravasation model of migraine; type: in vivo; conditions: rat
Source text: 5-HT7 antagonists are expected to have efficacy in the prophylactic (and potentially acute) treatment of migraine by: • 1) Preventing serotonin-induced vasodilatation of cranial blood vessels (Matthys, A., et al., Role of the 5-HT7 receptor in the central nervous system: from current status to future perspectives. Molecular Neurobiology, 2011; Leopoldo, M., et al., Serotonin 5-HT7 receptor agents: Structure-activity relationships and potential therapeutic applications in central nervous system disorders. Pharmacology & Therapeutics, 2011, 129, 120-148; Hedlund, P. B., The 5-HT7 receptor and disorders of the nervous system: an overview. Psychopharmacology, 2009, 206, 345-354). Contrary to the triptans, 5-HT7 antagonists would only reverse a pre-existing vasodilatation, without producing vasoconstriction by themselves. This would make 5-HT7 antagonists, in contrast to triptans, compatible with chronic use and therefore with prophylactic treatment. • 2) By inhibiting peripheral and central sensitization. […] In this rat model of migraine, dural protein extravasation is induced by electrical stimulation of the trigeminal ganglion. […]
The level of fluorescence in dura maters ipsi- and contra-lateral to the trigeminal ganglia stimulation is quantified with a digital camera (Hamamatsu C4742-98 filter for FITC objective Nikon 2.8×) and analysis software (WIT5.3, Logical vision).

CGRP release = conditions: after electrical stimulation of the trigeminal ganglion; cited from earlier work

CC1CCN(CC[C@H]2CCCN2S(=O)(=O)c2cccc(O)c2)CC1 [SB-269970]
inhibition of neurogenic inflammation / reduction of protein extravasation [1]: Inhibition of neurogenic inflammation | human coronary artery contraction (human coronary artery): does not induce human coronary artery contraction | release of CGRP (CGRP release): inhibits the release of CGRP
